Assay results reported in ChEMBL document CHEMBL5113491, “Discovery of N-benzylarylamide derivatives as novel tubulin polymerization inhibitors capable of activating the Hippo pathway” (Eur J Med Chem, 2022).
Calls of active or inactive are those of the source. The rule behind the calls is not given here.

What was measured:
[1] = system: MGC-803; assay: Induction of apoptosis in human MGC-803 cells assessed as decrease in c-IAP1 protein expression measured after 48 hrs by Western blot analysis; type: functional, cell-based; conditions: dose 15-45 nmol/L, DDE = dose-dependent effect
[2] = system: SGC-7901; assay: Induction of apoptosis in human SGC-7901 cells assessed as decrease in Mcl-1 protein expression measured after 48 hrs by Western blot analysis; type: functional, cell-based; conditions: dose 15-45 nmol/L, DDE = dose-dependent effect
[3] = system: MGC-803; assay: Induction of apoptosis in human MGC-803 cells assessed as decrease in Bcl-xl protein expression measured after 48 hrs by Western blot analysis; type: functional, cell-based; conditions: dose 15-45 nmol/L, DDE = dose-dependent effect
[4] = system: ECa-109 cell line; assay: Antiproliferative activity against human EC109 cells assessed as inhibition of cell growth measured after 48 hrs by MTT assay; type: functional, cell-based; conditions: ECa-109, 48 h
[5] = system: MGC-803; assay: Induction of apoptosis in human MGC-803 cells assessed as increase in cleaved caspase 7 expression at 15 to 45 nmol/L measured after 48 hrs by Western blot analysis; type: functional, cell-based; conditions: dose 15-45 nmol/L
[6] = system: MGC-803; assay: Induction of morphological changes in human MGC-803 cells assessed as decrease in density at 15 to 45 nmol/L measured after 48 hrs by bright field microscopic analysis; type: functional, cell-based; conditions: dose 15-45 nmol/L
[7] = system: SGC-7901; assay: Induction of G2/M phase cell cycle arrest in human SGC-7901 cells assessed as increase in p-Histone H3 expression at 15 to 45 nmol/L measured after 48 hrs by Western blot analysis; type: functional, cell-based; conditions: dose 15-45 nmol/L
[8] = system: MGC-803; assay: Downregulation of YAP protein expression in human MGC-803 cells measured after 48 hrs by Western blot analysis; type: functional, cell-based; conditions: dose 15-45 nmol/L, DDE = dose-dependent effect
[9] = system: MGC-803; assay: Activation of MST in human MGC-803 cells assessed as increase in MST phosphorylation measured after 48 hrs by Western blot analysis; type: cell-based; conditions: filed as activator, dose 15-45 nmol/L, DDE = dose-dependent effect
[10] = system: SMMC-7721; assay: Antiproliferative activity against human SMMC-7721 cells assessed as inhibition of cell growth measured after 48 hrs by MTT assay; type: functional, cell-based; conditions: SMMC-7721, 48 h
[11] = system: SGC-7901; assay: Induction of apoptosis in human SGC-7901 cells assessed as increase in cleaved PARP expression at 15 to 45 nmol/L measured after 48 hrs by Western blot analysis; type: functional, cell-based; conditions: dose 15-45 nmol/L
[12] = system: HCT-116; assay: Antiproliferative activity against human HCT-116 cells assessed as inhibition of cell growth measured after 48 hrs by MTT assay; type: functional, cell-based; conditions: HCT-116, 48 h
[13] = system: MGC-803; assay: Activation of LATS in human MGC-803 cells assessed as increase in LATS phosphorylation measured after 48 hrs by Western blot analysis; type: cell-based; conditions: filed as activator, dose 15-45 nmol/L, DDE = dose-dependent effect
[14] = system: SGC-7901; assay: Induction of morphological changes in human SGC-7901 cells assessed as change in concentration of nuclei at 15 to 45 nmol/L measured after 48 hrs by DAPI staining based microscopic analysis; type: functional, cell-based; conditions: dose 15-45 nmol/L
[15] = system: MGC-803; assay: Induction of morphological changes in human MGC-803 cells assessed as cell fragmentation at 15 to 45 nmol/L measured after 48 hrs by bright field microscopic analysis; type: functional, cell-based; conditions: dose 15-45 nmol/L
[16] = molecular target: Tubulin (Homo sapiens) (UniProt P68371+Q9H4B7+P0DPH7+P68366+Q13509+Q71U36+P04350+Q3ZCM7+P07437+P68363+Q9BQE3+Q6PEY2+Q13885+Q9BVA1+Q9BUF5); assay: Induction of microtubule disruption in human SGC-7901 cells at 25 nmol/L measured after 48 hrs by DAPI staining based immunofluorescence assay; type: cell-based
[17] = system: MGC-803; assay: Induction of G2/M phase cell cycle arrest in human MGC-803 cells assessed as decrease in cyclin A1 expression at 15 to 45 nmol/L measured after 48 hrs by Western blot analysis; type: functional, cell-based; conditions: dose 15-45 nmol/L
[18] = system: KYSE-450; assay: Antiproliferative activity against human KYSE-450 cells assessed as inhibition of cell growth measured after 48 hrs by MTT assay; type: functional, cell-based; conditions: KYSE-450, 48 h
[19] = system: DU-145; assay: Antiproliferative activity against human DU-145 cells assessed as inhibition of cell growth measured after 48 hrs by MTT assay; type: functional, cell-based; conditions: DU-145, 48 h
[20] = system: MGC-803; assay: Antiproliferative activity against human MGC-803 cells assessed as inhibition of cell growth measured after 48 hrs by MTT assay; type: functional, cell-based; conditions: MGC-803, 48 h
[21] = system: SGC-7901; assay: Downregulation of Axl protein expression in human SGC-7901 cells at 15 to 45 nmol/L measured after 48 hrs by Western blot analysis; type: functional, cell-based; conditions: dose 15-45 nmol/L
[22] = system: SGC-7901; assay: Induction of G2/M phase cell cycle arrest in human SGC-7901 cells assessed as decrease in cyclin A2 expression at 15 to 45 nmol/L measured after 48 hrs by Western blot analysis; type: functional, cell-based; conditions: dose 15-45 nmol/L
[23] = system: SGC-7901; assay: Downregulation of TAZ protein expression in human SGC-7901 cells measured after 48 hrs by Western blot analysis; type: functional, cell-based; conditions: dose 15-45 nmol/L, DDE = dose-dependent effect
[24] = system: MGC-803; assay: Induction of apoptosis in human MGC-803 cells assessed as increase in cleaved caspase 9 expression at 15 to 45 nmol/L measured after 48 hrs by Western blot analysis; type: functional, cell-based; conditions: dose 15-45 nmol/L
[25] = system: SGC-7901; assay: Induction of morphological changes in human SGC-7901 cells assessed as decrease in density at 15 to 45 nmol/L measured after 48 hrs by bright field microscopic analysis; type: functional, cell-based; conditions: dose 15-45 nmol/L
[26] = system: MCF7; assay: Antiproliferative activity against human MCF7 cells assessed as inhibition of cell growth measured after 48 hrs by MTT assay; type: functional, cell-based; conditions: MCF7, 48 h
[27] = system: SGC-7901; assay: Induction of morphological changes in human SGC-7901 cells assessed as cell fragmentation at 15 to 45 nmol/L measured after 48 hrs by bright field microscopic analysis; type: functional, cell-based; conditions: dose 15-45 nmol/L
[28] = system: SGC-7901; assay: Induction of cell cycle arrest in human SGC-7901 cells assessed as increase in G2/M phase cells at 45 nmol/L measured after 24 hrs by flow cytometry (reference value: 7.04%); type: functional
[29] = system: SGC-7901; assay: Induction of G2/M phase cell cycle arrest in human SGC-7901 cells assessed as decrease in p-cdc2 (T161) expression at 15 to 45 nmol/L measured after 48 hrs by Western blot analysis; type: functional, cell-based; conditions: dose 15-45 nmol/L
[30] = system: HGC-27; assay: Antiproliferative activity against human HGC-27 cells assessed as inhibition of cell growth measured after 48 hrs by MTT assay; type: functional, cell-based; conditions: HGC-27, 48 h
[31] = Cytotoxicity against human HUVEC cells assessed as reduction in cell viability measured after 48 hrs by MTT assay; type: toxicity, cell-based
[32] = Cytotoxicity against human GES1 cells assessed as reduction in cell viability measured after 48 hrs by MTT assay; type: toxicity, cell-based
[33] = system: SGC-7901; assay: Induction of G2/M phase cell cycle arrest in human SGC-7901 cells assessed as decrease in cyclin B1 expression at 15 to 45 nmol/L measured after 48 hrs by Western blot analysis; type: functional, cell-based; conditions: dose 15-45 nmol/L
[34] = system: Huh-7; assay: Antiproliferative activity against human Huh-7 cells assessed as inhibition of cell growth measured after 48 hrs by MTT assay; type: functional, cell-based; conditions: Huh-7, 48 h
[35] = system: SGC-7901; assay: Antiproliferative activity against human SGC-7901 cells assessed as inhibition of cell growth measured upto 72 hrs by MTT assay; type: functional, cell-based; conditions: dose 15-45 µmol/L, DDE = dose-dependent effect
[36] = Induction of cell apoptosis in human SGC-7901 cells assessed as increase in apoptotic cells at 45 nmol/L measured after 48 hrs by Annexin V/PI staining based flow cytometric analysis (reference value: 9.28%); type: functional
[37] = system: SGC-7901; assay: Activation of MST in human SGC-7901 cells assessed as increase in MST phosphorylation measured after 48 hrs by Western blot analysis; type: cell-based; conditions: filed as activator, dose 15-45 nmol/L, DDE = dose-dependent effect

## C/C=C/C(=O)N(Cc1ccc(OC)c(O)c1)c1cc(OC)c(OC)c(OC)c1
[1]
  Activity: Dde
[2]
  Activity: Dde
[3]
  Activity: Dde
[4]
  IC50: 85 nM
[5]
  Activity: Active
[6]
  Activity: Active
[7]
  Activity: Active
[8]
  Activity: Dde
[9]
  Activity: Dde
[10]
  IC50: 43 nM
[11]
  Activity: Active
[12]
  IC50: 55 nM
[13]
  Activity: Dde
[14]
  Activity: Active
[15]
  Activity: Active
[16]
  Activity: Active
[17]
  Activity: Active
[18]
  IC50: 67 nM
[19]
  IC50: 81 nM
[20]
  IC50: 27 nM
[21]
  Activity: Active
[22]
  Activity: Active
[23]
  Activity: Dde
[24]
  Activity: Active
[25]
  Activity: Active
[26]
  IC50: 67 nM
[27]
  Activity: Active
[28]
  Activity: 80.89%
[29]
  Activity: Active
[30]
  IC50: 33 nM
[31]
  IC50 at 48 h: 48500 nM
[32]
  IC50 at 48 h: 768 nM
[33]
  Activity: Active
[34]
  IC50: 60 nM
[35]
  Activity: Dde
[36]
  Activity: 63.51%
[37]
  Activity: Dde
